Assay results taken from patent US20140303216A1, “COMPOSITIONS AND METHODS FOR INDUCING DISRUPTION OF BLOOD VASCULATURE AND FOR REDUCING ANGIOGENESIS” (BOARD OF REGENTS, THE UNIVERSITY OF TEXAS SYSTEM, priority 2011, published 2014).
Where two headings read alike, the source gives them in different places.

Columns and labels:
HUVECs [1] = test: HUVEC cytoskeleton imaging (actin stress fibers, β-tubulin immunohistochemistry)
Procedure: Alexa Fluor 488 phalloidin (Invitrogen) and/or 4′,6-Diamidino-2-phenylindole (Sigma) were added as needed.

[2] = system: developing Xenopus embryos; test: Xenopus embryo angiogenesis, in situ hybridization for erg/apinr and kdr:GFP imaging; assay type: in vivo, Xenopus laevis
Excerpt: (§1) Female adult Xenopus were ovulated by injections of human chorionic gonadotropin, and eggs were fertilized in vitro and dejellied in 3% cysteine (pH 7.9) and subsequently reared in ⅓×Marc's modified Ringer's (MMR) solution. For microinjections, embryos were placed in a solution of 2% Ficoll in ⅓×MMR solution, injected using forceps and an Oxford universal manipulator, reared in 2% Ficoll in ⅓×MMR to stage 9, then washed and reared in ⅓×MMR solution alone. For bilateral rab11b knock-down experiments, the posterior cardinal vein and intersomitic veins were targeted by injecting Morpholino antisense oligonucleotides (MOs) into the two ventral cells equatorially at the four-cell stage. For unilateral knockdown, only one ventral cell was injected. MOs were injected at 40 ng per blastomere. For the experiments to see the drug effects, embryos were placed in a solution of each chemical dissolved in 1% DMSO diluted in ⅓×MMR during indicated stages. For bead micro-surgery implantation, Affi-Gel Blue Gel beads (Bio-Rad) were soaked with 0.7 mg/ml recombinant mouse VEGF 164 aa (R&D systems) or BSA as a control. Whole-mount in situ hybridization for erg and apinr was performed as described^29.
(§2) To analyze action of TBZ precisely on inhibition of angiogenesis and disruption of vasculature, we tested TBZ on two different developmental stages. Xenopus late tailbud embryos at stage 31 were selected for testing the inhibitory effect of TBZ on angiogenesis (FIG. 3A-D). This embryonic stage coincides with the onset of intersomitic vein (ISV) angiogenesis, the process of forming smaller blood vessels by sprouting from pre-existing blood vessels. To observe disruption of existing vasculature, we selected stage 35/36 embryos in which the posterior cardinal vein (PCV) and ISV are already developed (FIG. 15).

HUVECs [3] = test: HUVEC wound scratch cell migration assay; assay type: cell-based, human; conditions: 250 μM TBZ, 15 h
Procedure: HUVECs (1.2×10^5 cells) were seeded into 24-well plate for 24 h, and the monolayers were wounded identically. Then, cells were washed with PBS and treated with EBM-2 containing 1% DMSO or 250 μM TBZ dissolved in 1% DMSO with combination of Y27632 or GGPP (Sigma). In the case of Y27632 treatment, cells were preincubated for 2 h before wounding. Cells were photographed at time zero and after 15 h, and the ratios of cell free area [(0 h-15 h)/0 h] were calculated.

Xenopus embryos = test: Xenopus embryo morphology and developmental defects; assay type: in vivo
Excerpt: as §1, with “1⁄3×Marc's” for “⅓×Marc's”, “1⁄3×MMR” for “⅓×MMR”, “[…] performed as described^29. Immunostaining for Xenopus” for “erg and apinr”, “previously described (Lee et al., 2008). Embryos at stage 35-36 were fixed in 1×MEMFA. 12/101 (1:500; DSHB), and primary antibodies were detected with Alexa Fluor-488 or 555 goat anti-mouse Immunoglobulin (IgG).” for “described^29.”

[4] = short-term or long-term studies at doses up to 15 times the usual human dose; cited from earlier work
[5] = rats; cited from earlier work
VEGF = VEGF levels in HT1080 cells (Western blotting, ELISA); assay type: cell-based, human; conditions: 250 μM TBZ, 24 hours
Procedure: Cells were lysed in cell lysis buffer (Cell Signaling Technology) containing 1 mM PMSF, and analyzed by SDS-PAGE and western blotting using anti-VEGF (Santa Cruz, A-20) or anti-GAPDH (Cell Signaling Technology) antibodies. The secreted VEGF level in culture media was determined by enzyme-linked immunosorbent assay (ELISA; R&D) according to the manufacturer's instructions.

[6] = system: vasculature within kdr:GFP frogs; test: Time-lapse fluorescence microscopy of vasculature in kdr:GFP Xenopus embryos; assay type: in vivo, Xenopus laevis
Excerpt: Immunohistochemistry and kdr:GFP transgenic Xenopus laevis were imaged on an inverted Zeiss LSM5 Pascal confocal microscope and Zeiss 5-LIVE Fast Scanning confocal microscope. Confocal images were processed and cropped in Imaris software (BITPLANE) and Adobe Illustrator and Adobe Photoshop for compilation of Figures.
as §2
As a direct test of the vascular disrupting activity of TBZ, we performed time-lapse imaging of developing vasculature. Using Kdr-GFP transgenic embryos^12 and time-lapse confocal microscopy^22, we could effectively image developing vasculature in vivo for periods of up 20 hours. During this time, the growth of existing blood vessels and the sprouting of new vasculature could be easily followed (FIG. 16). […] Upon longer exposures, endothelial cells scattered and many underwent dramatic rounding (FIGS. 5A, 17).

HUVEC cells = test: HUVEC apoptosis and proliferation (Caspase-3, Phospho-histone H3 immunostaining); assay type: cell-based, human; conditions: cultured on 0.1% gelatin
Excerpt: FIG. 18. TBZ treatment (A) increases apoptosis and (B) decreases proliferation of HUVEC cells cultured on 0.1% gelatin, but only by approximately 2-fold. Both changes are significant under a t test (p=0.015, p=0.01, respectively). Error bars represent mean±1 s.d. across 14-16 fields of view of 200× magnification confocal microscopy cell images across 2-3 independent experiments. Scale bar, 100 μm.
Control cells received 1% DMSO.

[7] = mice; cited from earlier work

## c1ccc2[nH]c(-c3cscn3)nc2c1 [TBZ, 4-(1H-1,3-benzodiazol-2-yl)-1,3-thiazole]
HUVECs [1]; 250 μM TBZ versus 1% DMSO control
  actin stress fibers: disorganization of actin stress fibers
HUVECs [1]; HUVEC cells in culture, 250 μM TBZ
  gross organization of the MT cytoskeleton: only a very slight effect
[2]; Xenopus embryos in vivo
  concentration at which angiogenesis inhibition was observed: 100 to 250 µM
[2]; Xenopus embryos, 250 μM TBZ in 1% DMSO, treated at stage 31, imaged at stages 35-36
  angiogenesis, expression of vascular-specific genes apinr and erg: severely impaired angiogenesis
[2]; treatment at later stages (stage 36), in situ hybridization versus apinr at stage 39
  disruption of pre-existing vasculature: overt breakdown of established vasculature
HUVECs [3]
  endothelial cell migration in scratch wound assay: significantly slowed
Xenopus embryos; 250 μM TBZ, 1% DMSO, treated at stage 31, imaged at stages 35-36, compared to 1% DMSO control
  somitic muscle, defined with the 12/101 antibody: normal
Xenopus embryos; at the stages when the vasculature was severely disrupted
  overall morphology and patterning of treated Xenopus embryos: grossly normal
[4]
  carcinogenic effects: no carcinogenic effects
[5]
  effect on fertility: does not appear to affect fertility
VEGF
  level of VEGF expressed by HT1080 cells (Western blotting): did not alter
  level of VEGF secreted by HT1080 cells (ELISA): did not alter
[6]; Kdr-GFP transgenic embryos
  exposure time after which established blood vessels disintegrated: approximately 90 minutes
[6]; Kdr-GFP transgenic embryos, time-lapse confocal microscopy
  growth and sprouting of blood vessels: completely prevented
[6]; in vivo
  persistence of vascular gene expression in dispersed, rounded kdr-GFP+ endothelial cells after treatment: up to 17 hours
[6]; in vivo imaging of the vasculature
  time within which endothelial cells retract from one another and round up: ≤ 2 h
[6]; washout after TBZ-induced cell dispersal and rounding
  recovery of vasculature after washout of the drug: significant re-spreading of endothelial cells and re-formation of blood vessels
HUVEC cells; p=0.01
  decrease of proliferation of HUVEC cells: approximately 2 fold
HUVEC cells; p=0.015
  increase of apoptosis of HUVEC cells: approximately 2 fold
[7]
  effect on fertility: does not appear to affect fertility
